Data: the NIST ThermoML archive (doi:10.1021/acs.jced.6b00180)
Numbers after ± are expanded uncertainties.

Tests used:
[1] = refractive index (Na D-line) (dimensionless); conditions: 293.15 K; 101.33 kPa; Liquid; Standard Abbe refractometry
[2] = Boiling temperature at pressure P; conditions: 101.33 kPa; Liquid; Ebulliometric method (Recirculating still)
[3] = Liquid, Ebulliometric method (Recirculating still)

CCCCCC [hexane]
refractive index [1]: 1.3748 ± 0.0005

CO [methanol]
refractive index [1]: 1.3286 ± 0.0005
Boiling temperature at pressure P [2]: 64.7 ± 1 °C

CCO [ethanol]
refractive index [1]: 1.3613 ± 0.0005
vapor or sublimation pressure ([3]; 351.55 K): 101.3 ± 5.1 kPa
Boiling temperature at pressure P [2]: 78.4 ± 1 °C

C1CCCC1 [cyclopentane]
refractive index [1]: 1.4064 ± 0.0005
vapor or sublimation pressure ([3]; 352.85 K): 250 ± 13 kPa

C=CC(=C)C [2-methyl-1,3-butadiene]
refractive index [1]: 1.4218 ± 0.0005
vapor or sublimation pressure ([3]; 336.35 K): 250 ± 13 kPa

CCCCC [pentane]
refractive index [1]: 1.3578 ± 0.0005
vapor or sublimation pressure ([3]; 338.35 K): 250 ± 13 kPa

C1=CCCC1 [cyclopentene]
refractive index [1]: 1.4224 ± 0.0005
vapor or sublimation pressure ([3]; 347.35 K): 250 ± 13 kPa

CCC(C)C [2-methylbutane]
refractive index [1]: 1.3535 ± 0.0005
vapor or sublimation pressure ([3]; 330.05 K): 250 ± 13 kPa

CC=C(C)C [2-methyl-2-butene]
refractive index [1]: 1.3876 ± 0.0005
vapor or sublimation pressure ([3]; 341.15 K): 250 ± 13 kPa

CC(C)=O [acetone]
refractive index [1]: 1.3586 ± 0.0005
vapor or sublimation pressure ([3]; 329.35 K): 101.3 ± 5.1 kPa
Boiling temperature at pressure P [2]: 56.2 ± 1 °C
